Laboratory results as given in PubChem BioAssay AID248 (DTP/NCI, 2004).
“And” between values parts separate entries of the source, which are not always exact repeats. Equal values may be shown once. Toxic doses and inconclusive results are not listed. Rule as the data show it: active = T/C of 150% or more; inactive = T/C below 125%.

System: L1210 leukemia ip in BDF1 mice, survival T/C
Test: NCI In Vivo Anticancer Drug Screen. Data for tumor model L1210 Leukemia (intraperitoneal) in B6D2F1 (BDF1) mice
Settings: endpoint: mean survival time, higher = longer survival
Method in brief: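 Mice bearing the transplanted tumor received compound or vehicle. Survival of the treated group was divided by that of the vehicle-treated control group to give the ratio.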

[1] = dose: 100.0 mg/kg/injection, schedule: Q04DX003 (ip), vehicle: saline
[2] = dose: 200.0 mg/kg/injection, schedule: Q04DX003 (ip), vehicle: saline
[3] = dose: 400.0 mg/kg/injection, schedule: Q04DX003 (ip), vehicle: saline
[4] = dose: 100.0 mg/kg/injection, schedule: Q04DX003 (ip), vehicle: saline with Tween-80
[5] = dose: 100.0 mg/kg/injection, schedule: Q01DX009 (ip), vehicle: Klucel (hydroxypropylcellulose) (HPC)
[6] = dose: 100.0 mg/kg/injection, schedule: Q04DX003 (ip), vehicle: Klucel (hydroxypropylcellulose) (HPC)
[7] = dose: 200.0 mg/kg/injection, schedule: Q01DX009 (ip), vehicle: Klucel (hydroxypropylcellulose) (HPC)
[8] = dose: 200.0 mg/kg/injection, schedule: Q04DX003 (ip), vehicle: Klucel (hydroxypropylcellulose) (HPC)
[9] = dose: 400.0 mg/kg/injection, schedule: Q04DX003 (ip), vehicle: Klucel (hydroxypropylcellulose) (HPC)
[10] = dose: 400.0 mg/kg/injection, schedule: Q01DX009 (ip), vehicle: Klucel (hydroxypropylcellulose) (HPC)
[11] = dose: 50.0 mg/kg/injection, schedule: Q01DX001 (ip), vehicle: carboxymethylcellulose (CMC)
[12] = dose: 100.0 mg/kg/injection, schedule: Q01DX001 (ip), vehicle: carboxymethylcellulose (CMC)
[13] = dose: 200.0 mg/kg/injection, schedule: Q01DX001 (ip), vehicle: carboxymethylcellulose (CMC)
[14] = dose: 400.0 mg/kg/injection, schedule: Q01DX001 (ip), vehicle: carboxymethylcellulose (CMC)

Measured: T/C

Brc1cc(Br)c(N=Nc2c(Br)cc(Br)cc2Br)c(Br)c1
inactive: dose: 50.0 mg/kg/injection, schedule: Q01DX001 (ip), vehicle: saline 95 % of control | dose: 100.0 mg/kg/injection, schedule: Q01DX001 (ip), vehicle: saline 95 % of control | dose: 200.0 mg/kg/injection, schedule: Q01DX001 (ip), vehicle: saline 95 % of control | dose: 400.0 mg/kg/injection, schedule: Q01DX001 (ip), vehicle: saline 101 % of control

CCn1nnnc1N
inactive: [1] 91 % of control | [2] 94 % of control | [3] 102 % of control

O=C1C=C(c2ccccc2)OC(c2ccccc2)C1 (stereo not drawn)
inactive: dose: 75.0 mg/kg/injection, schedule: Q01DX009 (ip), vehicle: Klucel (hydroxypropylcellulose) (HPC) 97 % of control | dose: 150.0 mg/kg/injection, schedule: Q01DX009 (ip), vehicle: Klucel (hydroxypropylcellulose) (HPC) 99 % of control | dose: 300.0 mg/kg/injection, schedule: Q01DX009 (ip), vehicle: Klucel (hydroxypropylcellulose) (HPC) 99 % of control

CCCCCCCc1nc(N)c(C(N)=O)[nH]1
inactive: dose: 25.0 mg/kg/injection, schedule: Q04DX003 (ip), vehicle: saline with Tween-80 96 % of control | dose: 50.0 mg/kg/injection, schedule: Q04DX003 (ip), vehicle: saline with Tween-80 102 % of control | dose: 100.0 mg/kg/injection, schedule: Q01DX001 (ip), vehicle: saline with Tween-80 98 % of control | [4] 101 % of control

O=C(Nc1ccc([N+](=O)[O-])cc1Cl)SCc1ccccc1
inactive: dose: 100.0 mg/kg/injection, schedule: Q01DX001 (ip), vehicle: Klucel (hydroxypropylcellulose) (HPC) 96 % of control | [5] 94 % of control and 101 % of control | dose: 100.0 mg/kg/injection, schedule: Q04DX002 (ip), vehicle: Klucel (hydroxypropylcellulose) (HPC) 95 % of control and 105 % of control | [6] 92 % of control | dose: 200.0 mg/kg/injection, schedule: Q01DX001 (ip), vehicle: Klucel (hydroxypropylcellulose) (HPC) 96 % of control | [7] 97 % of control and 106 % of control | dose: 200.0 mg/kg/injection, schedule: Q04DX002 (ip), vehicle: Klucel (hydroxypropylcellulose) (HPC) 103 % of control and 105 % of control | [8] 95 % of control | dose: 400.0 mg/kg/injection, schedule: Q01DX001 (ip), vehicle: Klucel (hydroxypropylcellulose) (HPC) 96 % of control | dose: 400.0 mg/kg/injection, schedule: Q04DX002 (ip), vehicle: Klucel (hydroxypropylcellulose) (HPC) 94 % of control and 95 % of control | [9] 92 % of control

O=C(Nc1ccccc1Cl)N(Cc1ccccc1)c1ccccc1
inactive: [5] 99 % of control | [6] 96 % of control | [7] 91 % of control | [8] 94 % of control | [10] 94 % of control | [9] 96 % of control

O=c1[nH]cc(CCc2ccccc2)c(=O)[nH]1
inactive: [5] 105 % of control | [6] 94 % of control | [7] 96 % of control | [8] 94 % of control | [10] 98 % of control | [9] 93 % of control

C=CCSC(C)CC (stereo not drawn)
inactive: dose: 50.0 mg/kg/injection, schedule: Q01DX009 (ip), vehicle: saline with Tween-80 95 % of control | dose: 100.0 mg/kg/injection, schedule: Q01DX009 (ip), vehicle: saline with Tween-80 101 % of control | [4] 96 % of control | dose: 200.0 mg/kg/injection, schedule: Q01DX009 (ip), vehicle: saline with Tween-80 92 % of control | dose: 200.0 mg/kg/injection, schedule: Q04DX003 (ip), vehicle: saline with Tween-80 96 % of control

COCCN(N=O)C(=O)NC1CCCCC1
inactive: dose: 700.0 mg/kg/injection, schedule: Q01DX001 (ip), vehicle: carboxymethylcellulose (CMC) 124 % of control | dose: 800.0 mg/kg/injection, schedule: Q01DX001 (ip), vehicle: carboxymethylcellulose (CMC) 124 % of control | dose: 1000.0 mg/kg/injection, schedule: Q01DX001 (ip), vehicle: carboxymethylcellulose (CMC) 117 % of control

O=C(Nc1ccc(C(F)(F)F)cc1)Nc1cccc(Cl)c1
inactive: [11] 98 % of control | [12] 101 % of control | [13] 93 % of control | [14] 95 % of control

CCC(=O)C(=O)Cc1cc[n+]([O-])c2ccccc12
inactive: [6] 102 % of control | [8] 97 % of control | [9] 113 % of control

CCOc1ccc(/C=C2\N=C(c3ccc([N+](=O)[O-])cc3)OC2=O)cc1
inactive: [5] 97 % of control | [7] 87 % of control | [10] 94 % of control

N#CC1CC(c2ccccc2)Nc2ccccc2N1 (stereo not drawn)
inactive: [6] 94 % of control | [8] 98 % of control | [9] 96 % of control

ClC(c1ccccc1)C(Cl)c1ccccc1 (stereo not drawn)
inactive: [11] 101 % of control | dose: 75.0 mg/kg/injection, schedule: Q04DX002 (ip), vehicle: Klucel (hydroxypropylcellulose) (HPC) 109 % of control | [12] 106 % of control | dose: 150.0 mg/kg/injection, schedule: Q04DX002 (ip), vehicle: Klucel (hydroxypropylcellulose) (HPC) 95 % of control | [13] 101 % of control | dose: 300.0 mg/kg/injection, schedule: Q04DX002 (ip), vehicle: Klucel (hydroxypropylcellulose) (HPC) 92 % of control | [14] 101 % of control

CC(O)C(=O)N(O)c1ccccc1OCc1ccccc1 (stereo not drawn)
inactive: dose: 75.0 mg/kg/injection, schedule: Q01DX001 (ip), vehicle: acetone 104 % of control | dose: 75.0 mg/kg/injection, schedule: Q04DX003 (ip), vehicle: acetone 102 % of control | dose: 150.0 mg/kg/injection, schedule: Q01DX001 (ip), vehicle: acetone 91 % of control | dose: 150.0 mg/kg/injection, schedule: Q04DX003 (ip), vehicle: acetone 98 % of control | dose: 300.0 mg/kg/injection, schedule: Q01DX001 (ip), vehicle: acetone 89 % of control | dose: 300.0 mg/kg/injection, schedule: Q04DX003 (ip), vehicle: acetone 96 % of control

COc1c(NC(=O)c2cccc(C(=O)Nc3cccc([N+](=O)[O-])c3OC)c2)cccc1[N+](=O)[O-]
inactive: [5] 96 % of control | [7] 89 % of control | [10] 92 % of control

O=C1c2ccccc2C(=O)C2C3C=CC(CC3)C12 (stereo not drawn)
inactive: [11] 100 % of control | [12] 97 % of control | [13] 97 % of control | [14] 97 % of control

O=[N+]([O-])c1ccc(-c2ncc3cnccn23)cc1
inactive: dose: 100.0 mg/kg/injection, schedule: Q01DX009 (ip), vehicle: saline 90 % of control | [1] 100 % of control | dose: 200.0 mg/kg/injection, schedule: Q01DX009 (ip), vehicle: saline 90 % of control | [2] 93 % of control | dose: 400.0 mg/kg/injection, schedule: Q01DX009 (ip), vehicle: saline 91 % of control | [3] 95 % of control

O=C(Nc1cc(C(F)(F)F)ccc1Cl)c1ccc(Cl)cc1
inactive: [5] 110 % of control | [1] 103 % of control | [7] 94 % of control | [2] 114 % of control | [10] 94 % of control | [3] 106 % of control

O=C(Nc1ccccc1Cl)c1cccnc1
inactive: dose: 100.0 mg/kg/injection, schedule: Q04DX003 (ip), vehicle: other 96 % of control | dose: 200.0 mg/kg/injection, schedule: Q04DX003 (ip), vehicle: other 97 % of control | dose: 400.0 mg/kg/injection, schedule: Q04DX003 (ip), vehicle: other 94 % of control
